The values below come from ChEMBL document CHEMBL5579793, “Design of cyclic peptides as novel inhibitors of ICOS/ICOSL interaction” (Bioorg Med Chem Lett, 2024).

The term IC50 denotes the concentration needed to halve the response being measured. Broadly, the Kd is the constant that tells how readily two partners part at equilibrium. The term half-life denotes the time needed for the level to fall by half in the phase considered. As a reminder, the logD is lipophilicity at a set pH, counting ionised and neutral species. The low end stands for a more hydrophilic compound, the high end for a more lipophilic compound. The term Papp A→B denotes the apparent permeability from the apical to the basolateral side of a cell layer. By Papp B→A is commonly meant how fast a substance crosses the layer from the basolateral side.

Series [1] has as its target T1, ICOS-ICOSL (Homo sapiens, UniProt O75144+Q9Y6W8).
T1 sequence (O75144 whole entry): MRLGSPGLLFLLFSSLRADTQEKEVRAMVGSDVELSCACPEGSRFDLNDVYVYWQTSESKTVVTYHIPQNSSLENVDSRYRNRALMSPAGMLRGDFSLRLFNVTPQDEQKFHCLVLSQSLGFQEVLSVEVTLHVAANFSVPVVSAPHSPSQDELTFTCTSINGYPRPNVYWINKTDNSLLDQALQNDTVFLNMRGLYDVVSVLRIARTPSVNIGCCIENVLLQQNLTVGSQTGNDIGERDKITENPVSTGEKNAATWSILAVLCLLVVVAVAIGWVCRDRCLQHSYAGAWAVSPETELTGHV
T1 sequence (Q9Y6W8 whole entry): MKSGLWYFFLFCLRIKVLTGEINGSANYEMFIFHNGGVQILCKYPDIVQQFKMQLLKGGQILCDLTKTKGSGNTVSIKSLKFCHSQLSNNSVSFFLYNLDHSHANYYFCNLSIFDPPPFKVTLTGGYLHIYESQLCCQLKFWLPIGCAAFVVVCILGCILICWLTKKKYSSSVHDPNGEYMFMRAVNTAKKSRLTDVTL
Put plainly: (§1) Inhibition of ICOS/ICOSL (unknown origin) interaction by TR-FRET assay. Format: protein assay. In general terms: TR-FRET usually uses a lanthanide donor and a delayed reading to cut background.

Series [2] addresses T2, ICOS-ICOSL (Homo sapiens) (UniProt O75144+Q9Y6W8). Description: (§2) Inhibition of ICOS/ICOSL (unknown origin) interaction by ELISA method. Format: protein assay. In general terms: ELISA stands for enzyme-linked immunosorbent assay.
The target of series [3] is T1, ICOS-ICOSL. The description is as §2. The format is protein assay.
In series [4] the target is T3, Inducible T-cell costimulator (Homo sapiens, UniProt Q9Y6W8).
T3 sequence (Q9Y6W8 whole entry): T1 sequence (Q9Y6W8 whole entry)
Put plainly: Binding affinity to ICOS (unknown origin) assessed as dissociation constant.

The species named for series [5] is Homo sapiens. Put plainly: Inhibition of PD-1/PD-L1 (unknown origin) protein-protein interaction at 50 uM by TR-FRET assay.
Series [6] is filed under the species Homo sapiens. Put plainly: Inhibition of CTLA4/B-7 (unknown origin) protein-protein interaction at 50 uM by TR-FRET assay.
Series [7] is filed under the species Homo sapiens. Put plainly: Inhibition of LAG-3/FGL1 (unknown origin) protein-protein interaction at 50 uM by TR-FRET assay.
The species entered for series [8] is Homo sapiens. Put plainly: Inhibition of VISTA/VSIG-3 (unknown origin) protein-protein interaction at 50 uM by TR-FRET assay.
A short description of series [9]: Stability of the compound in stimulated gastric fluid assessed as half life at pH 1.6. Format: ADME. Conditions: simulated gastric fluid.
The nature of series [10]: Stability of the compound in stimulated intestinal fluid assessed as half life at pH 6.5. The format is ADME. Conditions: simulated intestinal fluid.
Series [11] can be described thus: Stability in human plasma assessed as parent compound remaining measured after 2 hrs. The format is ADME, cell-free. Conditions: read-out: Stability.
Series [12] in a line: Lipophilicity, log D of compound at pH 7.4 by shake-flask method. The format is physicochemical. Conditions: buffer.
Series [13] can be described thus: Apparent permeability of the compound in human Caco-2 cells across apical to basolateral side. Format: ADME, cell-based. On the technique in general: Caco-2 monolayers are a common model of the intestinal barrier.
Series [14] in a line: Apparent permeability of the compound in human Caco-2 cells across basolateral to apical side. Format: ADME, cell-based.
The nature of series [15]: Stability in rat liver microsomes assessed as half life. The format is ADME, Microsome.
Series [16] deals with T2, ICOS-ICOSL (Homo sapiens). The description is as §1. The format is protein assay.

The source made the active and inactive calls. Where a SMILES comes first, the peptide text is derived from it. Bridges are numbered along the chain shown (N, C = ends).

Consider `CC(C)C[C@@H]1NC(=O)[C@H](Cc2ccccc2)NC(=O)[C@H](Cc2ccccc2)NC(=O)[C@@H]2CCCN2C(=O)[C@@H]2CCCN2C(=O)[C@H](Cc2ccc(O)cc2)NC(=O)[C@@H]2CCCN2C(=O)[C@H](C(C)C)NC(=O)[C@@H]2CCCN2C(=O)[C@H](Cc2ccc(O)cc2)NC(=O)[C@@H]2CSSC[C@H](NC1=O)C(=O)N[C@@H](CC(C)C)C(=O)N1CCC[C@H]1C(=O)N[C@@H](Cc1ccccc1)C(=O)N[C@@H](Cc1ccc(O)cc1)C(=O)N2` (cyclo(CLPFYCYPVPYPPFFL); disulfide 1-6), for which, at ICOS-ICOSL [1], it took 3.68 µM to reach half-maximal inhibition (IC50). Also, in [2], the inhibition result was “inactive”.

Regarding `CC(C)C[C@H](NC(=O)[C@@H]1CSSC[C@H](NC(=O)[C@@H](N)Cc2ccc(O)cc2)C(=O)N[C@@H](Cc2ccc(O)cc2)C(=O)N2CCC[C@H]2C(=O)N[C@@H](C(C)C)C(=O)N2CCC[C@H]2C(=O)N[C@@H](Cc2ccc(O)cc2)C(=O)N2CCC[C@H]2C(=O)N2CCC[C@H]2C(=O)N[C@@H](Cc2ccccc2)C(=O)N[C@@H](Cc2ccccc2)C(=O)N[C@@H](CC(C)C)C(=O)N1)C(=O)N[C@@H](Cc1ccccc1)C(=O)N[C@@H](CC(N)=O)C(=O)O` (H-YCYPVPYPPFFLCLFN-OH; disulfide 2-13), the half-inhibitory concentration (IC50) against ICOS-ICOSL [1] turned out to be 4.48 µM; against ICOS-ICOSL [3] it was 1.87 µM. The Kd in series [4] came to 36.7 µM. The inhibition entry in the series filed under Homo sapiens [5], in the series listed under Homo sapiens [6], in the series filed under Homo sapiens [7] and in the series filed under Homo sapiens [8] was “inactive” each time. Further, the results for the half-life in [9], in [10] and in series [15] were 6.5 h, 20.4 h and 18.3 h, respectively. The remaining at 2 h in series [11] was found to be 98.2%. The compound also gave a pH-dependent lipophilicity (logD) in series [12] of 2.94. Also, the Papp A→B in series [13] turned out to be 6.72 ×10⁻⁶ cm/s. Besides, in series [14], the apparent permeability from basolateral to apical (Papp B→A) came out at 10.8 ×10⁻⁶ cm/s.

For `CC[C@H](C)[C@@H]1NC(=O)[C@H](CO)NC(=O)[C@H](Cc2ccc(O)cc2)NC(=O)[C@H](Cc2ccc(O)cc2)NC(=O)[C@@H]2CSSC[C@H](NC(=O)[C@H](CC(C)C)NC(=O)[C@@H]3CCCN3C(=O)[C@@H]3CCCN3C1=O)C(=O)N[C@@H](CC(C)C)C(=O)N1CCC[C@H]1C(=O)N[C@@H](Cc1ccccc1)C(=O)NCC(=O)N[C@@H](CCCNC(=N)N)C(=O)N2` (cyclo(CLPFGRCYYSIPPL); disulfide 1-7), the inhibition result in series [16] and in series [2] was “inactive” each time. The Kd in series [4] came out at 4.47 µM.
